Reference: US12559504B2, “Benzotriazole derivative” (UBE CORPORATION, priority 2019, dated 2026)

Columns and labels:
[1] = test system: NQO1; assay: NQO1 enzyme induction test (in vitro) in Hepa1c1c7 cells; format: cell-based; details: Mus musculus, Hepa-1c1c7, 48 h, concentration to elevate the NQO1 activity by 1.5 times, about 48 hours, read-out: EC150
Summary of the method: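 Mouse Hepa1c1c7 cells treated about 48 h with compound (0.1% DMSO final), then lysed. NQO1 activity read as MTT reduction at 540 nm with menadione substrate, 5 min at room temperature, and corrected for cell number by CellTiter-Glo. EC150 is the concentration raising NQO1 activity 1.5-fold.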

[2] = biological target: T1, GST fusion human Keap1 (amino acid residue: 325-624) protein (Homo sapiens, UniProt Q14145); assay: Keap1-Nrf2 binding inhibition test (fluorescence polarization); details: compound concentration of 100 nM; read-out: inhibition rate
T1 construct: GST fusion human Keap1 (amino acid residue: 325-624) protein; purchased Protein tech Ag0779
T1 sequence (Q14145 325-624): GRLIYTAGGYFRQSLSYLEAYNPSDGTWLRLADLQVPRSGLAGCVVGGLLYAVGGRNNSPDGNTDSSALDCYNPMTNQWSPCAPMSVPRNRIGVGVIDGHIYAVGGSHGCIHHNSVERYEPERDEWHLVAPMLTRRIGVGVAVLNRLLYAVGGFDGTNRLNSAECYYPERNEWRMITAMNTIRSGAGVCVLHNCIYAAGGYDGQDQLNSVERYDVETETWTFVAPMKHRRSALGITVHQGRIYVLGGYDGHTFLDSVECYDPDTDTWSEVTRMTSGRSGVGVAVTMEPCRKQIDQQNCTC
Summary of the method: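 Fluorescence polarization with FITC-labelled Nrf2 peptide (FITC-Ahx-LDEETGEFL-NH2) and GST-human Keap1 (325-624) in 20 mM Tris pH 7.5, 150 mM NaCl, 0.05% Tween 20, 5 mM DTT, BSA; 30 min at room temperature, ex 482/em 530 nm. Percent inhibition at 100 nM compound, Keap1-free wells = 100%.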

[3] = test system: NQO1; assay: NQO1 expression induction test in mouse kidney (single administration); format: in vivo; details: Mus musculus, po, 6 h, Dose 30 mg/kg, BALB/c mouse kidney, 6 hours after administration, ratio to control group
Summary of the method: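 Female BALB/c mice received a single oral dose of compound in 0.5% methylcellulose, with untreated mice as controls. Six hours later, left-kidney NQO1 mRNA was measured by SYBR real-time RT-PCR normalised to GAPDH. Induction was expressed as the ratio of mean treated to mean control expression.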

[4] = Metabolism test using human liver microsome fractions; format: in vitro ADME; details: human liver microsomes, test compound 10 μmol/L, NADPH and UDP-glucuronic acid, 37° C.
Summary of the method: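 Compound depletion at 10 μmol/L final, 37 °C, followed by UV-HPLC of acetonitrile-quenched aliquots taken 0, 5, 10, 15, 20, 30 min; incubations contained microsomes (1 mg protein, human or monkey) with NADPH and UDPGA cofactors. Rate = slope over linear range.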

SMILES	EC (1.5-fold NQO1 activity) [1] [µM]	inhibition at 0.1 µM [2] [%]	fold induction at 30 mg/kg [3]	Human metabolic rate [4]
CC[C@@H]1CN(Cc2cc(C(c3ccc4c(nnn4C)c3C)C(C)(C)C(=O)O)ccc2C)Cc2c(ccc3cnn(C)c23)O1 (stereo partly drawn) [Example 21-(b), 3-(1,4-dimethyl-1H-benzo[d][1,2, 3)triazol-5-yl)-3-(3-(((R)-7-ethyl-1-methyl-1,7,8,10-tetrahydro-9H-(1,4]oxazepino[7,6-g]indazol-9-yl)methyl)-4-methylphenyl)-2,2-dimethylpropanoic Acid]	0.05 to 0.5	≥ 50	≤ 3	D (200≤metabolic rate<250 pmol/min/me protein)
CC[C@@H]1CN(Cc2cc(C(c3ccc4c(nnn4C)c3C)C(C)(C)C(=O)O)ccc2C)Cc2c(ccc3cn(C)nc23)O1 (stereo partly drawn) [Example 22-(b), 3-(1,4-dimethyl-1H-benzo[d][1,2, 3)triazol-5-yl)-3-(3-(((R)-7-ethyl-2-methyl-2,7,8,10-tetrahydro-9H-(1,4]oxazepino[7,6-g]indazol-9-yl)methyl)-4-methylphenyl)-2,2-dimethylpropanoic Acid]	0.0005 to 0.005	≥ 50	> 6	B (100≤metabolic rate<150 pmol/min/mg protein)
CC[C@@H]1CN(Cc2cc(C(c3ccc4c(nnn4C)c3C)C(C)(C)C(=O)O)ccc2C)Cc2ncc3ccccc3c2O1 (stereo partly drawn) [Example 25-(b), 3-(1,4-dimethyl-1H-benzo[d][1,2,3]triazol-5-yl)-3-(3-(((R)-2-ethyl-2,3-dihydro-[1,4]oxazepino[6,7-c]isoquinolin-4(5H)-yl)methyl)-4-methylphenyl)-2,2-dimethylpropanoic Acid]	0.0005 to 0.005	≥ 50	> 6	D (200≤metabolic rate<250 pmol/min/me protein)
CC[C@@H]1CN(Cc2cc(C(c3ccc4c(nnn4C)c3C)C(C)(C)C(=O)O)ccc2C)Cc2cnc3ccccc3c2O1 (stereo partly drawn) [Example 26-(b), 3-(1,4-dimethyl-1H-benzo[d][1,2,3]triazol-5-yl)-3-(3-(((R)-2-ethyl-2,3-dihydro-[1,4]oxazepino[6,7-c]quinolin-4(5H)-yl)methyl)-4-methylphenyl)-2,2-dimethylpropanoic Acid]	0.0005 to 0.005	≥ 50	> 6	E (metabolic rate≥250 pmol/min/mg protein)
CC[C@@H]1CN(Cc2cc(C(c3ccc4c(nnn4C)c3C)C(C)(C)C(=O)O)ccc2C)Cc2cc(F)c3ccccc3c2O1 (stereo partly drawn) [Example 49-(b), 3-(1,4-dimethyl-1H-benzo[d](1,2, 3)triazol-5-yl)-3-(3-(((R)-2-ethyl-7-fluoro-2,3-dihydronaphtho[2,1-f][1,4]oxazepin-4 (5H)-yl)methyl)-4-methylphenyl)-2,2-dimethylpropanoic Acid]	0.0005 to 0.005	≥ 50	> 6	B (100≤metabolic rate<150 pmol/min/mg protein)
CC[C@@H]1CN(Cc2cc(C(c3ccc4c(nnn4C)c3C)C(C)(C)C(=O)O)ccc2C)Cc2cc3cnn(C)c3cc2O1 (stereo partly drawn) [Example 50-(b), 3-(1,4-dimethyl-1H-benzo[d][1,2,3]triazol-5-yl)-3-(3-(((R)-8-ethyl-1-methyl-1,5,7,8-tetrahydro-6H-[1,4]oxazepino[6,7-f]indazol-6-yl)methyl)-4-methylphenyl)-2,2-dimethylpropanoic Acid]	0.0005 to 0.005	≥ 50	> 6	C (150≤metabolic rate<200 pmol/min/mg protein)
CC[C@@H]1CN(Cc2cc(C(c3ccc4c(nnn4C)c3C)C(C)(C)C(=O)O)ccc2C)Cc2cc3cn(C)nc3cc2O1 (stereo partly drawn) [Example 51-(b), 3-(1,4-dimethyl-1H-benzo[d][1,2,3]triazol-5-yl)-3-(3-(((R)-8-ethyl-2-methyl-2,5,7,8-tetrahydro-6H-[1,4]oxazepino[6,7-f]indazol-6-yl)methyl)-4-methylphenyl)-2,2-dimethylpropanoic Acid]	0.0005 to 0.005	≥ 50	> 6	B (100≤metabolic rate<150 pmol/min/mg protein)
CC[C@@H]1CN(Cc2cc(C(c3ccc4c(nnn4C)c3C)C(C)(C)C(=O)O)ccc2C)Cc2cc3ccncc3cc2O1 (stereo partly drawn) [Example 52-(b), 3-(1,4-dimethyl-1H-benzo[d][1,2, 3]triazol-5-yl)-3-(3-(((R)-2-ethyl-2,3-dihydro-[1,4]oxazepino[6,7-g]isoquinolin-4 (5H)-yl)methyl)-4-methylphenyl)-2,2-dimethylpropanoic Acid]	0.0005 to 0.005	≥ 50	> 6	C (150≤metabolic rate<200 pmol/min/mg protein)
CC[C@@H]1CN(Cc2cc(C(c3ccc4c(nnn4C)c3C)C(C)(C)C(=O)O)ccc2C)Cc2cc3cnccc3cc2O1 (stereo partly drawn) [Example 53, 3-(1,4-dimethyl-1H-benzo[d][1,2,3]triazol-5-yl)-3-(3-(((R)-2-ethyl-2,3-dihydro-[1,4]oxazepino[7,6-g]isoquinolin-4 (5H)-yl)methyl)-4-methylphenyl)-2,2-dimethylpropanoic Acid]	0.0005 to 0.005	≥ 50	> 6	C (150≤metabolic rate<200 pmol/min/mg protein)
CC[C@@H]1CN(Cc2cc(C(c3ccc4c(nnn4C)c3C)C(C)(C)C(=O)O)ccc2C)Cc2cc3c(F)cccc3cc2O1 (stereo partly drawn) [Example 54-(b), 3-(1,4-dimethyl-1H-benzo[d][1,2,3]triazol-5-yl)-3-(3-(((R)-2-ethyl-7-fluoro-2,3-dihydronaphtho[2,3-f][1,4]oxazepin-4(5H)-yl)methyl)-4-methylphenyl)-2,2-dimethylpropanoic Acid]	0.005 to 0.05	≥ 50	3 to 6	B (100≤metabolic rate<150 pmol/min/mg protein)
CC[C@@H]1CN(Cc2cc(C(c3ccc4c(nnn4C)c3C)C(C)(C)C(=O)O)ccc2C)Cc2ccc3cnccc3c2O1.O=C(O)C(F)(F)F.O=C(O)C(F)(F)F (stereo partly drawn) [Example 55-(b), 3-(1,4-dimethyl-1H-benzo[d][1,2,3]triazol-5-yl)-3-(3-(((R)-2-ethyl-2,3-dihydro-[1,4]oxazepino[7,6-f]isoquinolin-4(5H)-yl)methyl)-4-methylphenyl)-2,2-dimethylpropanoic Acid Ditrifluoroacetate]	0.0005 to 0.005	≥ 50	≤ 3	C (150≤metabolic rate<200 pmol/min/mg protein)
CC[C@@H]1CN(Cc2cc(C(CC(=O)O)c3ccc4c(nnn4C)c3C)ccc2C)Cc2cc3ncccc3cc2O1 (stereo partly drawn) [Example 56-(b), 3-(1,4-dimethyl-1H-benzo[d][1,2,3]triazol-5-yl)-3-(3-(((R)-2-ethyl-2,3-dihydro-[1,4]oxazepino[7,6-g]quinolin-4(5H)-yl)methyl)-4-methylphenyl)propanoic acid]	0.0005 to 0.005	≥ 50	3 to 6	E (metabolic rate≥250 pmol/min/mg protein)
CC[C@@H]1CN(Cc2cc(C(c3ccc4c(nnn4CC)c3C)C(C)(C)C(=O)O)ccc2C)Cc2cc3ncccc3cc2O1 (stereo partly drawn) [Example 59-(b), 3-(3-(((R)-2-ethyl-2,3-dihydro-[1,4]oxazepino[7,6-g]quinolin-4(5H)-yl)methyl)-4-methylphenyl)-3-(1-ethyl-4-methyl-1H-benzo[d][1,2,3]triazol-5-yl)-2,2-dimethylpropanoic Acid]	0.0005 to 0.005	≥ 50	> 6	D (200≤metabolic rate<250 pmol/min/me protein)
Cc1ccc(C(c2ccc3c(nnn3C)c2C)C(C)(C)C(=O)O)cc1CN1Cc2cc3ncccc3cc2OC(C)(C)C1 (stereo not drawn) [Example 60-(b), 3-(1,4-dimethyl-1H-benzo[d][1,2,3]triazol-5-yl)-3-(3-((2,2-dimethyl-2,3-dihydro-[1,4]oxazepino[7,6-g]quinolin-4 (5H)-yl)methyl)-4-methylphenyl)-2,2-dimethylpropanoic Acid]	0.0005 to 0.005	≥ 50	≤ 3	D (200≤metabolic rate<250 pmol/min/me protein)
CC[C@@H]1CN(Cc2cc(C(c3ccc4c(nnn4C)c3C)C(C)(C)C(=O)O)ccc2C)Cc2cc3c(cc2O1)OC(C)(C)O3 (stereo partly drawn) [Example 61-(b), 3-(1,4-dimethyl-1H-benzo[d][1,2,3)triazol-5-yl)-3-(3-(((R)-6-ethyl-2,2-dimethyl-6,7-dihydro-(1,3]dioxolo[4′,5′:4,5]benzo[1,2-f][1,4]oxazepin-8(9H)-yl)methyl)-4-methylphenyl)-2,2-dimethylpropanoic Acid]	0.005 to 0.05	≥ 50	3 to 6	A (metabolic rate<100 pmol/min/mg protein)
